Laboratory results taken from ChEMBL document CHEMBL5385863, “Targeting the phosphoserine phosphatase MtSerB2 for tuberculosis drug discovery, an hybrid knowledge based /fragment based approach” (Eur J Med Chem, 2023).
Activity calls are given as the source filed them. The calls are words filed in the database; no cut-off is given here.

Key:
[1] = molecular target: Phosphoserine phosphatase SerB2 (Mycobacterium tuberculosis) (UniProt O53289); test: Binding affinity to Mycobacterium tuberculosis SerB2 expressed in Escherichia coli BL21 (DE3) cells assessed as protein destabilization at 4 mM by differential scanning fluorimetry
[2] = molecular target: Phosphoserine phosphatase SerB2 (Mycobacterium tuberculosis) (UniProt O53289); test: Inhibition of Mycobacterium tuberculosis SerB2 expressed in Escherichia coli BL21 at 1 mM incubated for 10 mins by malachite green dye based phosphatase assay relative to control
[3] = molecular target: Phosphoserine phosphatase SerB2 (Mycobacterium tuberculosis) (UniProt O53289); test: Binding affinity to Mycobacterium tuberculosis SerB2 expressed in Escherichia coli BL21 (DE3) cells assessed as change in melting temperature at 4 mM by differential scanning fluorimetry
[4] = molecular target: Phosphoserine phosphatase SerB2 (Mycobacterium tuberculosis) (UniProt O53289); test: Inhibition of Mycobacterium tuberculosis SerB2 expressed in Escherichia coli BL21 at 1 mM incubated for 10 mins by malachite green dye based phosphatase assay

Phosphoserine phosphatase SerB2 (Mycobacterium tuberculosis), sequence (O53289 whole entry): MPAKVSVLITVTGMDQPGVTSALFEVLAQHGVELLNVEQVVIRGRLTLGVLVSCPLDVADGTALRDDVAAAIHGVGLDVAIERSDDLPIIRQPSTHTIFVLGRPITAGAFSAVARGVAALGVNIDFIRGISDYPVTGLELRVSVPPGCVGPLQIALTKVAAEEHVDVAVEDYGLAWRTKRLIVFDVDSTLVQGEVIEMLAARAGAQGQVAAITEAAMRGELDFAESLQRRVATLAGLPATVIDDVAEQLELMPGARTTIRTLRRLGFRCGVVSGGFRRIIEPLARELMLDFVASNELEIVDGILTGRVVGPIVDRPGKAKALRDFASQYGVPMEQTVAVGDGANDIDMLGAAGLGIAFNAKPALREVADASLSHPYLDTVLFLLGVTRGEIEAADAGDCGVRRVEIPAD

Row | Structure (SMILES) | Activity [1] | inhibition [2] [%] | ΔTm [3] [°C] | inhibition [4]
1 | O=C(NO)Nc1ccc(Cl)cc1Cl | Active | > 50 | > 0.5 | 
2 | NCCCP(=O)(O)O |  |  |  | Active
3 | N[C@@H](CCS(=O)(=O)O)C(=O)O | Active |  | > 0.5 | 
4 | Nc1ccc(O)cc1 | inactive | > 50 | > 0.5 | 
5 | Nc1ccc(C(=O)O)c(O)c1 |  |  |  | Active
6 | O=P(O)(O)C(O)(Cn1ccnc1)P(=O)(O)O | Active | > 50 | > 0.5 | 
7 | CCC(N)P(=O)(O)O (configuration not stated) |  |  |  | Active
8 | c1ccc(-c2c[nH]cn2)cc1 | Active |  | > 0.5 | 
9 | Cc1cc(C2CCCCC2)n(O)c(=O)c1 | Active |  | > 0.5 | 
10 | O=C(O)c1cc(O)ccn1 | Active | > 50 | > 0.5 | 
11 | Nc1ccncc1 | Active |  | > 0.5 | 
12 | NC(=O)NO | Active |  | > 0.5 | Active
13 | c1c[nH]cn1 |  |  |  | Active
